Target: T1, full length active recombinant SYK enzyme (Homo sapiens, UniProt P43405)
T1 construct: full length active recombinant SYK enzyme (Millipore, Calif.); purchased Millipore
Assay: Inhibition of Syk tyrosine phosphorylation activity (LANCE TR-FRET kinase assay)
Type: biochemical
Details: 1 nM SYK, 550 nM substrate, 100 μM ATP, 1 hour room temperature

SMILES	IC50
NC(=O)c1cnc(N[C@@H]2CCCC(F)(F)[C@@H]2N)nc1Nc1ccc2scnc2c1 [Example 30, 2-(((1R,2R)-2-amino-3,3-difluorocyclohexyl)amino)-4-(benzo[d]thiazol-5-ylamino)pyrimidine-5-carboxamide]	0.1 to 1 µM
NC(=O)c1cnc(N[C@@H]2CCCC(F)(F)[C@@H]2N)nc1Nc1csc2ncccc12 [Example 31, 2-(((1R,2R)-2-amino-3,3-difluorocyclohexyl)amino)-4-(thieno[2,3-b]pyridin-3-ylamino)pyrimidine-5-carboxamide]	0.01 to 0.1 µM
NC(=O)c1cnc(N[C@H]2[C@@H](N)CCCC2(F)F)nc1Nc1cccc(-n2cccn2)c1 [Example 34, 4-((3-(1H-pyrazol-1-yl)phenyl)amino)-2-(((1S,6S)-6-amino-2,2-difluorocyclohexyl)amino)pyrimidine-5-carboxamide]	0.001 to 0.01 µM
NC(=O)c1cnc(N[C@H]2[C@@H](N)CCCC2(F)F)nc1Nc1cccc(-c2ncccn2)c1 [Example 35, 2-(((1S,6S)-6-amino-2,2-difluorocyclohexyl)amino)-4-((3-(pyrimidin-2-yl)phenyl)amino)pyrimidine-5-carboxamide]	0.01 to 0.1 µM
NC(=O)c1cnc(N[C@H]2[C@@H](N)CCCC2(F)F)nc1Nc1cnn2ccccc12 [Example 37, 2-(((1S,6S)-6-amino-2,2-difluorocyclohexyl)amino)-4-(pyrazolo[1,5-a]pyridin-3-ylamino)pyrimidine-5-carboxamide]	0.01 to 0.1 µM
Cc1cccc(Nc2nc(N[C@H]3[C@@H](N)CCCC3(F)F)ncc2C(N)=O)c1 [Example 39, 2-(((1S,6S)-6-amino-2,2-difluorocyclohexyl)amino)-4-(m-tolylamino)pyrimidine-5-carboxamide]	0.01 to 0.1 µM
NC(=O)c1cnc(N[C@@H]2CCCC[C@@H]2N)nc1Nc1cnn2ccccc12 [Example 43, 2-(((1R,2S)-2-aminocyclohexyl)amino)-4-(pyrazolo[1,5-a]pyridin-3-ylamino)pyrimidine-5-carboxamide]	0.001 to 0.01 µM
Cc1cncc(Nc2nc(N[C@@H]3CCCC[C@@H]3N)ncc2C(N)=O)c1 [Example 46, 2-(((1R,2S)-2-aminocyclohexyl)amino)-4-((5-methylpyridin-3-yl)amino)pyrimidine-5-carboxamide]	0.01 to 0.1 µM
COc1cncc(Nc2nc(N[C@@H]3CCCC[C@@H]3N)ncc2C(N)=O)c1 [Example 47, 2-(((1R,2S)-2-aminocyclohexyl)amino)-4-((5-methoxypyridin-3-yl)amino)pyrimidine-5-carboxamide]	0.01 to 0.1 µM
NC(=O)c1cnc(N[C@@H]2CCCC[C@@H]2N)nc1Nc1cncc(-n2cccn2)c1 [Example 48, 4-((5-(1H-pyrazol-1-yl)pyridin-3-yl)amino)-2-(((1R,2S)-2-aminocyclohexyl)amino)pyrimidine-5-carboxamide]	0.01 to 0.1 µM
Cc1cc(Nc2nc(N[C@@H]3CCCC[C@@H]3N)ncc2C(N)=O)sn1 [Example 49, 2-(((1R,2S)-2-aminocyclohexyl)amino)-4-((3-methylisothiazol-5-yl)amino)pyrimidine-5-carboxamide]	0.001 to 0.01 µM
NC(=O)c1cnc(N[C@@H]2CCOC[C@@H]2N)nc1Nc1ccccc1 [Example 52, 2-(((3R,4R)-3-aminotetrahydro-2H-pyran-4-yl)amino)-4-(phenylamino)pyrimidine-5-carboxamide]	0.1 to 1 µM
N#Cc1cccc(Nc2nc(N[C@@H]3CCOC[C@@H]3N)ncc2C(N)=O)c1 [Example 53, 2-(((3R,4R)-3-aminotetrahydro-2H-pyran-4-yl)amino)-4-((3-cyanophenyl)amino)pyrimidine-5-carboxamide]	0.01 to 0.1 µM
CC[C@@H](Nc1ncc(C(N)=O)c(Nc2csc3ncccc23)n1)C(N)=O [Example 55, (R)-2-((1-amino-1-oxobutan-2-yl)amino)-4-(thieno[2,3-b]pyridin-3-ylamino)pyrimidine-5-carboxamide]	0.01 to 0.1 µM
CC[C@@H](Nc1ncc(C(N)=O)c(Nc2cnn3ccccc23)n1)C(N)=O [Example 56, (R)-2-((1-amino-1-oxobutan-2-yl)amino)-4-(pyrazolo[1,5-a]pyridin-3-ylamino)pyrimidine-5-carboxamide]	0.01 to 0.1 µM
CC[C@@H](Nc1ncc(C(N)=O)c(Nc2ccc3cccnc3c2)n1)C(N)=O [Example 57, (R)-2-((1-amino-1-oxobutan-2-yl)amino)-4-(quinolin-7-ylamino)pyrimidine-5-carboxamide]	0.01 to 0.1 µM
CC[C@@H](Nc1ncc(C(N)=O)c(Nc2ccc(-c3cncs3)cc2)n1)C(N)=O [Example 58, (R)-2-((1-amino-1-oxobutan-2-yl)amino)-4-((4-(thiazol-5-yl)phenyl)amino)pyrimidine-5-carboxamide]	0.01 to 0.1 µM
CC[C@@H](Nc1ncc(C(N)=O)c(Nc2ccc(-c3cnns3)cc2)n1)C(N)=O [Example 59, (R)-4-((4-(1,2,3-thiadiazol-5-yl)phenyl)amino)-2-((1-amino-1-oxobutan-2-yl)amino)pyrimidine-5-carboxamide]	0.01 to 0.1 µM
COc1cccc(Nc2nc(N[C@H](CC(C)C)C(N)=O)ncc2C(N)=O)c1 [Example 62, (R)-2-((1-amino-4-methyl-1-oxopentan-2-yl)amino)-4-((3-methoxyphenyl)amino)pyrimidine-5-carboxamide]	0.01 to 0.1 µM
COc1cccc(Nc2nc(N[C@H](CC3CC3)C(N)=O)ncc2C(N)=O)c1 [Example 63, (R)-2-((1-amino-3-cyclopropyl-1-oxopropan-2-yl)amino)-4-((3-methoxyphenyl)amino)pyrimidine-5-carboxamide]	0.1 to 1 µM
COc1cccc(Nc2nc(N[C@@H](C(N)=O)C3CC3)ncc2C(N)=O)c1 [Example 64, (R)-2-((2-amino-1-cyclopropyl-2-oxoethyl)amino)-4-((3-methoxyphenyl)amino)pyrimidine-5-carboxamide]	0.1 to 1 µM
CC[C@@H](Nc1ncc(C(N)=O)c(Nc2cc(C)ns2)n1)C(N)=O [Example 65, (R)-2-((1-amino-1-oxobutan-2-yl)amino)-4-((3-methylisothiazol-5-yl)amino)pyrimidine-5-carboxamide]	0.01 to 0.1 µM
CC(C)[C@@H](Nc1ncc(C(N)=O)c(Nc2ccc3c(ccc[n+]3[O-])c2)n1)C(N)=O [Example 70, (R)-2-(1-amino-3-methyl-1-oxobutan-2-ylamino)-4-(quinolin-6-ylamino)pyrimidine-5-carboxamide N-oxide]	0.1 to 1 µM

More lines, now with the values ahead:

IC50	SMILES
0.01 to 0.1 µM	NC(=O)c1cnc(N[C@@H]2CCCC(F)(F)[C@@H]2N)nc1Nc1ccc2ncsc2c1 [Example 29, 2-(((1R,2R)-2-amino-3,3-difluorocyclohexyl)amino)-4-(benzo[d]thiazol-6-ylamino)pyrimidine-5-carboxamide]
0.1 to 1 µM	Cc1cc(C)cc(Nc2nc(N[C@@H]3CCCC(F)(F)[C@@H]3N)ncc2C(N)=O)c1 [Example 33, 2-(((1R,2R)-2-amino-3,3-difluorocyclohexyl)amino)-4-((3,5-dimethylphenyl)amino)pyrimidine-5-carboxamide]
0.01 to 0.1 µM	NC(=O)c1cnc(N[C@H]2[C@@H](N)CCCC2(F)F)nc1Nc1csc2ncccc12 [Example 36, 2-(((1S,6S)-6-amino-2,2-difluorocyclohexyl)amino)-4-(thieno[2,3-b]pyridin-3-ylamino)pyrimidine-5-carboxamide]
0.01 to 0.1 µM	Cc1ccc(Nc2nc(N[C@H]3[C@@H](N)CCCC3(F)F)ncc2C(N)=O)cc1 [Example 38, 2-(((1S,6S)-6-amino-2,2-difluorocyclohexyl)amino)-4-(p-tolylamino)pyrimidine-5-carboxamide]
0.001 to 0.01 µM	NC(=O)c1cnc(N[C@@H]2CCCC[C@@H]2N)nc1Nc1csc2ncccc12 [Example 44, 2-(((1R,2S)-2-aminocyclohexyl)amino)-4-(thieno[2,3-b]pyridin-3-ylamino)pyrimidine-5-carboxamide]
0.01 to 0.1 µM	NC(=O)c1cnc(N[C@@H]2CCCC[C@@H]2N)nc1Nc1cncc(F)c1 [Example 45]
0.01 to 0.1 µM	NC(=O)c1cnc(N[C@@H]2CCOC[C@@H]2N)nc1Nc1cccc(Cl)c1 [Example 50, 2-(((3R,4R)-3-aminotetrahydro-2H-pyran-4-yl)amino)-4-((3-chlorophenyl)amino)pyrimidine-5-carboxamide]
0.01 to 0.1 µM	NC(=O)c1cnc(N[C@@H]2CCOC[C@@H]2N)nc1Nc1ccc(Cl)cc1 [Example 51, 2-(((3R,4R)-3-aminotetrahydro-2H-pyran-4-yl)amino)-4-((4-chlorophenyl)amino)pyrimidine-5-carboxamide]
0.1 to 1 µM	N#Cc1ccc(Nc2nc(N[C@@H]3CCOC[C@@H]3N)ncc2C(N)=O)cc1 [Example 54, 2-(((3R,4R)-3-aminotetrahydro-2H-pyran-4-yl)amino)-4-((4-cyanophenyl)amino)pyrimidine-5-carboxamide]
0.1 to 1 µM	CC[C@@H](Nc1ncc(C(N)=O)c(Nc2cccc(OC)c2)n1)C(N)=O [Example 60, (R)-2-((1-amino-1-oxobutan-2-yl)amino)-4-((3-methoxyphenyl)amino)pyrimidine-5-carboxamide]
0.1 to 1 µM	CCC[C@@H](Nc1ncc(C(N)=O)c(Nc2cccc(OC)c2)n1)C(N)=O [Example 61, (R)-2-((1-amino-1-oxopentan-2-yl)amino)-4-((3-methoxyphenyl)amino)pyrimidine-5-carboxamide]
0.01 to 0.1 µM	CC[C@@H](Nc1ncc(C(N)=O)c(Nc2cnc3ccccc3c2)n1)C(N)=O [Example 68, (R)-2-(1-amino-1-oxobutan-2-ylamino)-4-(quinolin-3-ylamino)pyrimidine-5-carboxamide]
0.01 to 0.1 µM	CC(C)[C@@H](Nc1ncc(C(N)=O)c(Nc2ccc3ncccc3c2)n1)C(N)=O [Example 69, (R)-2-(1-amino-3-methyl-1-oxobutan-2-ylamino)-4-(quinolin-6-ylamino)pyrimidine-5-carboxamide]
